Measured values: ChEMBL document CHEMBL4024722, “Discovery of acylguanidine oseltamivir carboxylate derivatives as potent neuraminidase inhibitors” (Bioorg Med Chem, 2017)

Legend:
[1] = Inhibition of Influenza A virus (A/Hong Kong/498/97(H3N2)) neuraminidase using 4-MU-NANA as substrate preincubated for 10 mins followed by substrate addition measured after 1 hr by fluorescence assay
[2] = Inhibition of Influenza A virus (A/Puerto Rico/8/1934(H1N1)) neuraminidase using 4-MU-NANA as substrate preincubated for 10 mins followed by substrate addition measured after 1 hr by fluorescence assay
[3] = Cytotoxicity against MDCK cells after 72 hrs by Alamar-Blue assay; assay type: cell-based, Canis lupus familiaris; details: dog

`CCC(CC)O[C@@H]1C=C(C(=O)O)C[C@H](NC(=N)NC(=O)Cc2ccc(C)cc2)[C@H]1NC(C)=O` showed an IC50 [1] of 0.0095 µM and an IC50 [2] of 0.0294 µM.
`CCC(CC)O[C@@H]1C=C(C(=O)O)C[C@H](NC(=N)NC(=O)c2cccc(C)c2)[C@H]1NC(C)=O` showed an IC50 [1] of 0.0195 µM and an IC50 [2] of 0.0115 µM.
In the case of `CCC(CC)O[C@@H]1C=C(C(=O)O)C[C@H](NC(=N)NC(=O)Cc2ccc(Br)cc2)[C@H]1NC(C)=O`, the CC50 at 72 h [3] is reported as > 1 µM, the IC50 [1] is reported as 0.008 µM and the IC50 [2] is reported as 0.0145 µM.
`CCCCC(=O)NC(=N)N[C@H]1CC(C(=O)O)=C[C@@H](OC(CC)CC)[C@@H]1NC(C)=O` gave an IC50 [1] of 0.006 µM and an IC50 [2] of 0.037 µM.
With `CCC(CC)O[C@@H]1C=C(C(=O)O)C[C@H](NC(=N)NC(=O)c2ccncc2)[C@H]1NC(C)=O` the IC50 [1] was 0.0161 µM and the IC50 [2] was 0.0152 µM.
For `CCC(CC)O[C@@H]1C=C(C(=O)O)C[C@H](NC(=N)NC(=O)c2cccc(OC)c2)[C@H]1NC(C)=O`, the IC50 [1] was 0.533 µM and the IC50 [2] was 0.175 µM.
In the case of `CCC(CC)O[C@@H]1C=C(C(=O)O)C[C@H](NC(=N)NC(=O)c2ccccc2C)[C@H]1NC(C)=O`, the IC50 [1] is reported as > 1 µM and the IC50 [2] is reported as > 1 µM.
In the case of `CCC(CC)O[C@@H]1C=C(C(=O)O)C[C@H](NC(=N)NC(=O)c2ccc([N+](=O)[O-])cc2)[C@H]1NC(C)=O`, the CC50 at 72 h [3] is reported as > 1 µM, the IC50 [1] is reported as 0.0142 µM and the IC50 [2] is reported as 0.0201 µM.
`CCC(CC)O[C@@H]1C=C(C(=O)O)C[C@H](NC(=N)NC(=O)c2cc(C)cc(C)c2)[C@H]1NC(C)=O` showed an IC50 [1] of 0.159 µM and an IC50 [2] of 0.155 µM.
With `CCC(CC)O[C@@H]1C=C(C(=O)O)C[C@H](NC(=N)NC(=O)Cc2ccc3ccccc3c2)[C@H]1NC(C)=O` the CC50 at 72 h [3] was > 1 µM, the IC50 [1] was 0.0072 µM and the IC50 [2] was 0.0211 µM.
For `CCC(CC)O[C@@H]1C=C(C(=O)O)C[C@H](NC(=N)NC(=O)CCc2ccccc2)[C@H]1NC(C)=O`, the IC50 [1] was 0.0094 µM and the IC50 [2] was 0.0301 µM.
`CCC(CC)O[C@@H]1C=C(C(=O)O)C[C@H](NC(=N)NC(=O)c2ccc(OC)cc2)[C@H]1NC(C)=O` gave an IC50 [1] of 0.215 µM and an IC50 [2] of 0.0686 µM.
`CCC(CC)O[C@@H]1C=C(C(=O)O)C[C@H](NC(=N)NC(=O)c2ccccc2O)[C@H]1NC(C)=O` gave an IC50 [1] of 0.185 µM and an IC50 [2] of 0.0498 µM.
For `CCC(CC)O[C@@H]1C=C(C(=O)O)C[C@H](NC(=N)NC(=O)C(C)C)[C@H]1NC(C)=O`, the IC50 [1] was 0.0137 µM and the IC50 [2] was 0.0382 µM.
With `CCC(CC)O[C@@H]1C=C(C(=O)O)C[C@H](NC(=N)NC(=O)CCc2cccnc2)[C@H]1NC(C)=O` the IC50 [1] was 0.0146 µM and the IC50 [2] was 0.0102 µM.
In the case of `CCC(=O)NC(=N)N[C@H]1CC(C(=O)O)=C[C@@H](OC(CC)CC)[C@@H]1NC(C)=O`, the CC50 at 72 h [3] is reported as > 1 µM, the IC50 [1] is reported as 0.0114 µM and the IC50 [2] is reported as 0.0391 µM.
Work on `CCC(CC)O[C@@H]1C=C(C(=O)O)C[C@H](NC(=N)NC(=O)c2cccc(C(F)(F)F)c2)[C@H]1NC(C)=O` yielded an IC50 [1] of 0.0761 µM and an IC50 [2] of 0.216 µM.
Molecule `CCC(CC)O[C@@H]1C=C(C(=O)O)C[C@H](NC(=N)NC(=O)c2ccccc2)[C@H]1NC(C)=O` has an IC50 [1] of 0.334 µM and an IC50 [2] of 0.574 µM.
In the case of `CCC(CC)O[C@@H]1C=C(C(=O)O)C[C@H](NC(=N)NC(=O)Cc2ccccc2C)[C@H]1NC(C)=O`, the IC50 [1] is reported as 0.0228 µM and the IC50 [2] is reported as 0.0865 µM.
With `CCC(CC)O[C@@H]1C=C(C(=O)O)C[C@H](NC(=N)NC(=O)CCc2ccc(OC)c(OC)c2)[C@H]1NC(C)=O` the CC50 at 72 h [3] was > 1 µM, the IC50 [1] was 0.00364 µM and the IC50 [2] was 0.00143 µM.
For `C=CCCC(=O)NC(=N)N[C@H]1CC(C(=O)O)=C[C@@H](OC(CC)CC)[C@@H]1NC(C)=O`, the CC50 at 72 h [3] was > 1 µM, the IC50 [1] was 0.0054 µM and the IC50 [2] was 0.0081 µM.
`CCC(CC)O[C@@H]1C=C(C(=O)O)C[C@H](NC(=N)NC(=O)c2ccccc2OC)[C@H]1NC(C)=O` gave an IC50 [1] of 0.125 µM and an IC50 [2] of 0.0535 µM.
In the case of `CCC(CC)O[C@@H]1C=C(C(=O)O)C[C@H](NC(=N)NC(=O)c2ccccc2C(F)(F)F)[C@H]1NC(C)=O`, the IC50 [1] is reported as 0.911 µM and the IC50 [2] is reported as > 1 µM.
In the case of `CCC(CC)O[C@@H]1C=C(C(=O)O)C[C@H](NC(=N)NC(=O)c2ccc(C)cc2)[C@H]1NC(C)=O`, the IC50 [1] is reported as > 1 µM and the IC50 [2] is reported as > 1 µM.
Molecule `CCC(CC)O[C@@H]1C=C(C(=O)O)C[C@H](NC(=N)NC(=O)CC(C)C)[C@H]1NC(C)=O` has an IC50 [1] of 0.0184 µM and an IC50 [2] of 0.0883 µM.
With `CCC(CC)O[C@@H]1C=C(C(=O)O)C[C@H](NC(=N)NC(=O)c2ccccc2Br)[C@H]1NC(C)=O` the IC50 [1] was > 1 µM and the IC50 [2] was > 1 µM.
Work on `CCCC(=O)NC(=N)N[C@H]1CC(C(=O)O)=C[C@@H](OC(CC)CC)[C@@H]1NC(C)=O` yielded an IC50 [1] of 0.0112 µM and an IC50 [2] of 0.0348 µM.
For `CCC(CC)O[C@@H]1C=C(C(=O)O)C[C@H](NC(=N)NC(=O)CCCc2ccccc2)[C@H]1NC(C)=O`, the IC50 [1] was 0.0214 µM and the IC50 [2] was 0.0649 µM.
